The values that follow come from US9187480B2, “Peripherally restricted diphenyl purine derivatives” (RESEARCH TRIANGLE INSTITUTE, priority 2012, dated 2015).

Structures are written as SMILES. A value given as a limit tells only on which side of the number the result lay.

The target in data set [1] is T1, CB1 (Homo sapiens (Human), UniProt P21554). Put plainly: CB1 activated Gαq16-coupled intracellular calcium mobilization assay in CHO-K1 cells. It counts as cell-based. Particulars: apparent affinity (Ke).
T1 sequence (P21554 whole entry): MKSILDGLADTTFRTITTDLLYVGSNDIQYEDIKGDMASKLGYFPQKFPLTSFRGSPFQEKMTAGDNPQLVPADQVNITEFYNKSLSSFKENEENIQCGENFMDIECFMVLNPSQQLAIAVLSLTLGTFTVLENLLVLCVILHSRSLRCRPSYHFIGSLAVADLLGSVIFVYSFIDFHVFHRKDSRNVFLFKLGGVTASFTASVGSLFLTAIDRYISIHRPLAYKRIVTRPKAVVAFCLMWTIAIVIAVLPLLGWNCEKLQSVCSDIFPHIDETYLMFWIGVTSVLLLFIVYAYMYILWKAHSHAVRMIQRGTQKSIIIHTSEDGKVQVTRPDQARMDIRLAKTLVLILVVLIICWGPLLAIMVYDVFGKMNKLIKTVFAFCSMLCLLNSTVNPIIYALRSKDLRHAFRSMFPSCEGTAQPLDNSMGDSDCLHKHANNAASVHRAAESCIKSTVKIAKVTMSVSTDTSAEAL
Data set [2] deals with CB2 (Homo sapiens (Human), UniProt P34972). Kind of data set: Displacement of [3H]CP55940 in membranes of CHO-K1 cells over-expressing CB2. It counts as binding. Particulars: radioligand [3H]CP55940, CHO-K1 membranes; read-out: Ki (nM) v. [3H]CP55940 at CB2.
Chain of CB2 (P34972 whole entry): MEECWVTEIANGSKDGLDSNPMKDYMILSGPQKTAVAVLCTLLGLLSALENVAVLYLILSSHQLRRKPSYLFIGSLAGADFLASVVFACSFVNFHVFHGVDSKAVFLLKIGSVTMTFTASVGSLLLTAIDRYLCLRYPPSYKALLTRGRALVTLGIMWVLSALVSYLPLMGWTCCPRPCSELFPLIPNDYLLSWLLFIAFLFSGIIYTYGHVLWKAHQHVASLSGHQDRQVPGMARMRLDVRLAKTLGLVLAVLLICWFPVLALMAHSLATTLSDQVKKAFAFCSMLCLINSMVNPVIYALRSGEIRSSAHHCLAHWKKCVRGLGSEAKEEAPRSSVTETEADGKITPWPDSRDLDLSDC
Data set [3] addresses T1, CB1. Put plainly: Radioligand displacement of [3H]SR141716 at CB1. It counts as binding. To be noted: radioligand [3H]SR141716; read-out: Ki (nM) v. [3H]SR141716 at CB1.
Data set [4] addresses T1, CB1. Kind of data set: Displacement of [3H]CP55940 in membranes of CHO-K1 cells over-expressing CB1.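 For all read-outs here: reported values are averages of 3-6 independent measurements.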 Particulars: for Binding Selectivity using CP55940 Displacement: CB1 versus CB2; for Ki: read-out: Ki (nM) v. [3H]CP55940 at CB1, radioligand [3H]CP55940, CHO-K1 membranes.
Protocol: Further characterization of select compounds was performed using radioligand displacement of [3H]1 and equilibrium dissociation constant (Ki) values were determined. Selectivity of these compounds at CB1 versus CB2 was also determined by obtaining Ki values at either receptor using displacement of [3H]CP55940 in membranes of CHO-K1 cells over-expressing either receptor. Data reported are average values from 3-6 measurements.
Selectivity against the CB2 receptor was determined by comparing the compound displacement of radiolabeled CP55940, which is a cannabinoid known to act as a full agonist at both CB1 and CB2 receptors.
A short description of data set [5]: Brain penetration / plasma and brain levels after oral dosing in SD rats. The data set is classed as in vivo, Sprague-Dawley (SD) rats. Particulars: Sprague-Dawley, rat, oral 10 mg/kg. How it is done:
However, unlike otenabant, this sulfonamide is a peripherally selective compound. […] Select compounds were chosen for study to determine penetration into the CNS. Selected compounds were dosed orally at 10 mg/kg in SD rats. Brain and plasma samples were collected at 1, 2, 4, and 24 hours post dose and samples were analyzed by MS (Table 2, below). Since unperfused brains were used and the blood volume in unperfused brains is approximately 4%, a brain to plasma level of ≦0.04 represents no discernible penetration into the CNS.

Data set [6] deals with MDCK-MDR. Put plainly: MDCK-MDR transport (apical to basal). The data set is classed as in vitro ADME.

Regarding `NS(=O)(=O)NCC1CCC(CNc2ncnc3c2nc(-c2ccccc2Cl)n3-c2ccc(Cl)cc2)CC1` (stereo not drawn), the “Ke (nM) at CB1” value in data set [1] was determined as 549.0 nM. Also, the inhibition constant Ki in data set [2] stood at 10700 nM; in data set [3], 94.5 nM; in data set [4], 355 nM. In addition, the “Binding Selectivity using CP55940 Displacement” value (“Binding Selectivity” for short) in data set [4] came out at 30.2.

Turning to `CS(=O)(=O)NC1(c2ccccc2)CCN(c2ncnc3c2nc(-c2ccccc2Cl)n3-c2ccc(Cl)cc2)CC1` [N-{1-[8-(2-Chlorophenyl)-9-(4-chlorophenyl)-9H-purin-6-yl]-4-phenylpiperidin-4-yl}methanesulfonamide], the Ki in data set [2] amounted to 948 nM. The Kp in data set [5] (brain and plasma, range over sampling times, read-out: brain to plasma ratios) is 0.05 to 0.11. In addition, the highest concentration (Cmax) in data set [5] (in vivo) was determined as 1650 ng/g. In data set [4], the “Binding Selectivity” value is given as 153 and the Ki worked out at 6.21 nM. Further, in data set [6], the “% MDCK-MDR transport (Apical to Basal)” value is recorded as less than 1%.

With `O=S1(=O)CCN(c2ncnc3c2nc(-c2ccccc2Cl)n3-c2ccc(Cl)cc2)CC1` [4-[8-(2-Chlorophenyl)-9-(4-chlorophenyl)-9H-purin-6-yl]-1λ^6,4-thiomorpholine-1,1-dione], the “Ke (nM) at CB1” value in data set [1] is reported as 159.00 nM. Also, the inhibitory constant (Ki) was 834 nM in data set [2], 16.8 nM in data set [3] and 32.1 nM in data set [4]. The “Binding Selectivity” value in data set [4] amounted to 26.0.

On to `CC(C)(C)NC(=O)NC1(c2ccccc2)CCN(c2ncnc3c2nc(-c2ccccc2Cl)n3-c2ccc(Cl)cc2)CC1`, for which the “Ke (nM) at CB1” value in data set [1] is recorded as 19.17 nM. For the same molecule, the inhibition constant Ki in data set [2] was found to be 20000 nM. In data set [4], the “Binding Selectivity” value was determined as 784 and the inhibition constant (Ki) was 25.5 nM. For the same molecule, the “% MDCK-MDR transport (Apical to Basal)” value in data set [6] is less than 1%.

Consider `CC(=O)NC1(c2ccccc2)CCN(c2ncnc3c2nc(-c2ccccc2Cl)n3-c2ccc(Cl)cc2)CC1`, for which, in data set [1], the “Ke (nM) at CB1” value worked out at 10.31 nM. Also, the inhibition constant Ki in data set [2] turned out to be 726 nM. Also, in data set [4], the “Binding Selectivity” value was 121 and the Ki worked out at 6 nM. In addition, the “% MDCK-MDR transport (Apical to Basal)” value in data set [6] is on record as 6%.

As for `CC(C)(C)NC(=O)C1(c2ccccc2)CCN(c2ncnc3c2nc(-c2ccccc2Cl)n3-c2ccc(Cl)cc2)CC1`, in data set [1], the “Ke (nM) at CB1” value is 2.2 nM. Also, the Ki in data set [2] was found to be 20000 nM; in data set [4] it was 4.08 nM. Moreover, in data set [4], the “Binding Selectivity” value stood at 4902. For the same molecule, in data set [6], the “% MDCK-MDR transport (Apical to Basal)” value is less than 1%.

With `CS(=O)(=O)NCC1CCC(CNc2ncnc3c2nc(-c2ccccc2Cl)n3-c2ccc(Cl)cc2)CC1` (stereo not drawn), the “Ke (nM) at CB1” value in data set [1] worked out at 201.00 nM. Moreover, the inhibition constant Ki in data set [2] is 2230 nM; in data set [3], 44.5 nM; in data set [4], 258 nM. Besides, the “Binding Selectivity” value in data set [4] was 8.6. Further, the “% MDCK-MDR transport (Apical to Basal)” value in data set [6] is more than 50%.

As to `NC(=O)C1(c2ccccc2)CCN(c2ncnc3c2nc(-c2ccccc2Cl)n3-c2ccc(Cl)cc2)CC1`, the “Ke (nM) at CB1” value in data set [1] is given as 9 nM. In addition, the Ki was 5510 nM in data set [2], 0.28 nM in data set [3] and 1.79 nM in data set [4]. Also, the “Binding Selectivity” value in data set [4] was 3076.5. Moreover, the “% MDCK-MDR transport (Apical to Basal)” value in data set [6] came to 5.6 ± 2.4%.

As to `CC(C)(C)OC(=O)NC1(c2ccccc2)CCN(c2ncnc3c2nc(-c2ccccc2Cl)n3-c2ccc(Cl)cc2)CC1`, the “Ke (nM) at CB1” value in data set [1] is 3.93 nM. Moreover, the Ki in data set [2] worked out at 13900 nM. Besides, in data set [4], the “Binding Selectivity” value was determined as 1959 and the Ki worked out at 7.12 nM. In addition, the “% MDCK-MDR transport (Apical to Basal)” value in data set [6] is less than 1%.
